Measurements from patent publication US8722088B2, “Pharmaceutical compositions and methods for the treatment of prostate cancer” (Ferring International Center S.A., priority 2009, dated 2014).
“Also recorded” adds a separate entry of the source. Where two headings read alike, the source gives them in different places. Where a SMILES comes first, the peptide text is derived from it. [ ]: non-standard residue; d: D form. The star is where a group is joined. dPhe(4-NHCONH2) = NC(=O)Nc1ccc(C[C@@H](N)C(=O)O)cc1; Dihydroorotyl(S) = O=C1C[C@@H](C(=O)*)NC(=O)N1; dPhe(4-Cl) = N[C@H](Cc1ccc(Cl)cc1)C(=O)O; Phe(4-NH2) = Nc1ccc(C[C@H](N)C(=O)O)cc1; d2Nal = N[C@H](Cc1ccc2ccccc2c1)C(=O)O; Lys(iPr) = CC(C)NCCCC[C@H](N)C(=O)O; d3Pal = N[C@H](Cc1cccnc1)C(=O)O

Key:
clinical = conditions: human, in vivo, 240 mg
Experimental: A three-month dosing regimen Phase 2 study investigated three different dosing regimens. After a starting dose of […] (with a concentration of 40 mg/mL of solvent), a further dose (i.e., maintenance dose) of 240 mg was given on Day 28, and then at Months 3, 6, and 9 or at Months 4, 7, and 10. Maintenance doses of 240 mg were evaluated initially at concentrations of 40 mg/mL and 60 mg/mL in this study, based on the observed results by different PK profiles of different concentrations. The patients were randomized in parallel to one of three different three-month maintenance dosing regimens of degarelix:
Thus, patients with lower degarelix plasma levels were more likely to have a testosterone level>0.5 ng/mL during the one year treatment period. […] This is consistent with the observation that for most patients, the time of first occurrence of a testosterone level>0.5 ng/mL was three months after a previous dose, at the time of trough degarelix plasma levels. The median trough degarelix plasma levels in the study ranged from about 6.5-7.5 ng/mL.

serum testosterone = assay: One-month dosing regimen clinical program: testosterone suppression to castrate level; type: in vivo, human; conditions: for testosterone response rate: Day 28 to Day 364
Experimental: Other studies establish that degarelix or pharmaceutically acceptable salt thereof at a dose of 240 mg (40 mg/mL) is an effective starting dose. […] With dosing at 0 months and an additional dosage at 1 month, it is believed that a steady state level is reached faster and this is (together with formulation, dose and concentration) a factor for consideration to obtain and maintain therapeutic levels in the patient. Use of a higher dose as the starting dose to have a ‘true’ 3 month depot is not feasible because of the combined requirements of a sufficient starting/loading phase release to allow buildup of degarelix plasma concentration; and at the same time sufficient long term release to achieve sufficiently high steady state concentration for 3 months. […] This is surprising given the high doses (and concentrations) of degarelix in the defined maintenance dose(s).

[1] = male, human, in vivo, sc
Experimental: The present study included a starting degarelix dose of 240 mg (with a concentration of 40 mg/mL of solvent), followed by maintenance doses of degarelix: i.e., 360 mg (with a concentration of 60 mg/mL of solvent) or 480 mg (with a concentration of 60 mg/mL of solvent), the latter administered at Months 1, 4, 7, and 10.
The study was open labeled and patients received a starting dose of 240 mg (with a concentration of 40 mg/mL of solvent) at Month 0 followed by one of two degarelix maintenance dose treatment regimens: 360 mg (with a concentration of 60 mg/mL of solvent) at Months 1, 4, 7, and 10; or 480 mg (with a concentration of 60 mg/mL of solvent) at Months 1, 4, 7, and 10.
The starting dose was administered subcutaneously as two injections of 120 mg (with a concentration of 40 mg/ml of solvent, given as 2×3 mL injections). After 28 days a maintenance dose of 360 mg (with a concentration of 60 mg/mL, given as 2×3 mL injections) or 480 mg (with a concentration of 60 mg/mL, given as 2×4 mL injections) was administered, also in two injections (each of 240 mg). Thereafter, with three monthly intervals, maintenance doses were given, again in the form of two injections. […] At each visit, serum testosterone, prostate specific androgen (PSA), and plasma concentration of degarelix were measured by techniques well known in the art.

Structure (SMILES): CC(=O)N[C@H](Cc1ccc2ccccc2c1)C(=O)N[C@H](Cc1ccc(Cl)cc1)C(=O)N[C@H](Cc1cccnc1)C(=O)N[C@@H](CO)C(=O)N[C@@H](Cc1ccc(NC(=O)[C@@H]2CC(=O)NC(=O)N2)cc1)C(=O)N[C@H](Cc1ccc(NC(N)=O)cc1)C(=O)N[C@@H](CC(C)C)C(=O)N[C@@H](CCCCNC(C)C)C(=O)N1CCC[C@H]1C(=O)N[C@H](C)C(N)=O [Degarelix, D-Alaninamide, N-acetyl-3-(2-naphthalenyl)-D-alanyl-4-chloro-D-phenylalanyl-3-(3-pyridinyl)-D-alanyl-L-seryl-4-[[[(4S)-hexahydro-2,6-dioxo-4-pyrimidinyl]carbonyl]amino]-L-phenylalanyl-4-[(aminocarbonyl)amino]-D-phenylalanyl-L leucyl-N6-(1-methylethyl)-L-lysyl-L-prolyl] (Ac-[d2Nal][dPhe(4-Cl)][d3Pal]S[Phe(4-NH2)](Dihydroorotyl(S))[dPhe(4-NHCONH2)]L[Lys(iPr)]P[dA]-NH2)
- estimated median degarelix trough concentration (clinical): < 9 ng/mL
- level at 1 year (clinical): ~7 ng/mL
- level at 3 months after a previous dose (clinical): 6.5 to 7.5 ng/mL
- sustained testosterone suppression for 3 months following an injection (serum testosterone; doses of 240 mg, 160 mg or 80 mg): failed to sustain testosterone suppression for 3 months; also recorded: none of the doses tested in the one-month dosing regimen program could sustain testosterone suppression for 3 months
- testosterone response rate (serum testosterone; monthly maintenance 80 mg (20 mg/mL)): 98%
- testosterone response rate (serum testosterone; monthly maintenance 160 mg (40 mg/mL)): 100%
- patients with testosterone suppressed to castrate level (T≦0.5 ng/mL) (serum testosterone; starting dose 240 mg (40 mg/mL), first 28 days): 95%
- estimated median degarelix trough concentration ([1]; 360 mg): above 9 ng/mL
- estimated median degarelix trough concentration ([1]; 480 mg): above 9 ng/mL
